Tested on: MAGI-CCR5 cells, HIV-1 Ba-L, beta-gal luminescence, 48 h
Assay: inhibitors of R5 HIV-1 replication in MAGI cells – MAGI-CCR5 cells, HIV-1 Ba-L, 2% serum, set 4, dose response (AID 504553)

Row | IC50 [µM] | Compound
1 | 3.39 | Cc1c2c(=O)n(-c3nc4ccccc4s3)nc-2cc(O)n1Cc1ccccc1Cl
2 | 9.51 | Cc1c2c(=O)n(-c3nc4ccccc4s3)nc-2cc(O)n1Cc1ccncc1
3 | 4.64 | COc1ccc(CCn2c(O)cc3nn(-c4nc5ccccc5s4)c(=O)c-3c2C)cc1
4 | 9.35 | Cc1c2c(=O)n(-c3nc4ccccc4s3)nc-2cc(O)n1CCC(C)C
5 | 7.43 | Cc1c2c(=O)n(-c3nc4ccccc4s3)nc-2cc(O)n1Cc1cccs1
6 | 6.99 | Cc1c2c(=O)n(-c3nc4ccccc4s3)nc-2cc(O)n1C1CC1
7 | 19 | Cc1c2c(=O)n(-c3nc4ccccc4s3)nc-2cc(O)n1CCc1cccs1
8 | 9.28 | Cc1c2c(=O)n(-c3nc4ccccc4s3)nc-2cc(O)n1Cc1ccccc1
9 | 29.2 | COc1ccc(Cn2c(O)cc3nn(-c4nc5ccccc5s4)c(=O)c-3c2C)cc1
10 | 19.6 | COc1ccccc1Cn1c(O)cc2nn(-c3nc4ccccc4s3)c(=O)c-2c1C
11 | 6.07 | Cc1c2c(=O)n(-c3nc4ccccc4s3)nc-2cc(O)n1Cc1cccnc1
12 | 3.53 | Cc1c2c(=O)n(-c3nc4ccccc4s3)nc-2cc(O)n1Cc1ccc(F)cc1
13 | 23 | Cc1c2c(=O)n(-c3nc4ccccc4s3)nc-2cc(O)n1CCc1ccc(O)cc1

— PubChem BioAssay AID504553 (Southern Research Specialized Biocontainment Screening …, 2011)
